# Results from publication PMC9203742 (Nature Communications, 2022).
# Several values for one entry are separate records, joined by “and”; a condition that tells them apart may be missing. Identical values can stand only once.
# Experiments:
# PC12 cells [1] = assay: Cell proliferation assay of undifferentiated PC12 cells; settings: average of #1-#3
# mGlu1 E60H/N264H mutant = biological target: T1, mGlu1 E60H/N264H mutant (Rattus norvegicus, UniProt P23385, E60H/N264H); assay: Fura-2 Ca2+ imaging in HEK293 cells expressing mGlu1 E60H/N264H; assay type: cell-based; settings: single-cell values #1-#20; E60H/N264H
# T1 construct: expressed in transfected cells; host or cells: HEK293
# T1 sequence (P23385 19-1199 E60H/N264H): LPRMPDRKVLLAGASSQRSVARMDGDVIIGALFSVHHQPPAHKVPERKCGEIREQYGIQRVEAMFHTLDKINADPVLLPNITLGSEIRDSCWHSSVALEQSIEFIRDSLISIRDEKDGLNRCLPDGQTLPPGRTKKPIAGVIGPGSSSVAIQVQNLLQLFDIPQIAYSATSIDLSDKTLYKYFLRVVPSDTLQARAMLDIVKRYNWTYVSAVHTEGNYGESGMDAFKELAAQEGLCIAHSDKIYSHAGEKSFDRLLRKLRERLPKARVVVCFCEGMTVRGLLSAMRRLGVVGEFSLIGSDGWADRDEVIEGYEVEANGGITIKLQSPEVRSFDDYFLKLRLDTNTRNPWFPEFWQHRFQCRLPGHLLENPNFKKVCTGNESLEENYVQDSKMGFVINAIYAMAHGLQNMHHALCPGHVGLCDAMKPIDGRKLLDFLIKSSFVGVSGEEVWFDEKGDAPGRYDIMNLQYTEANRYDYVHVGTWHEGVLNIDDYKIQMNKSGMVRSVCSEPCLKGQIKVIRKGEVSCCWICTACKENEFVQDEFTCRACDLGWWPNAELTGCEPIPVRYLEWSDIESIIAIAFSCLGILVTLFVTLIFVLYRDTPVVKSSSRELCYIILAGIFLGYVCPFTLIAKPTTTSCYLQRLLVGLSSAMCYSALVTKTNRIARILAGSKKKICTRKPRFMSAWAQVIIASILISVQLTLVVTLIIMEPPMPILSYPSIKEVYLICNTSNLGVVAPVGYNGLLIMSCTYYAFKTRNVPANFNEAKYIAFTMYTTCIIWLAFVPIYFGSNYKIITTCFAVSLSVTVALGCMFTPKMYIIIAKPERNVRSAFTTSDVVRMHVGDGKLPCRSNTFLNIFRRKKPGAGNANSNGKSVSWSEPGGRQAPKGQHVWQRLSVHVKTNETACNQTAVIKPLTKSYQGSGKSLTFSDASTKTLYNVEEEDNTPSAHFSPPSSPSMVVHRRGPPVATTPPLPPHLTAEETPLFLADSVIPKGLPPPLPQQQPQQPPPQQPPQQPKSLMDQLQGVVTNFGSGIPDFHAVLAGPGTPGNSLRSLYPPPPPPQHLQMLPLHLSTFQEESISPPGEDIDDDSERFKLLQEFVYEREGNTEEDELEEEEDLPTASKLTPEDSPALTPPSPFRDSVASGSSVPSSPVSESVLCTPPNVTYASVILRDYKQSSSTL
# WT mGlu1 = biological target: T2, WT mGlu1 (Rattus norvegicus, UniProt P23385); assay type: cell-based; settings: single-cell values #1-#20; WT
# T2 construct: expressed in transfected cells; host or cells: HEK293
# T2 sequence (P23385 19-1199): as the sequence (P23385 19-1199 E60H/N264H) above, with H42E, H246N counted along it
# mGlu1 A59H/G266H mutant = biological target: T3, mGlu1 A59H/G266H mutant (Rattus norvegicus, UniProt P23385, A59H/G266H); assay: Fura-2 Ca2+ imaging in HEK293 cells expressing mGlu1 A59H/G266H; assay type: cell-based; settings: single-cell values
# T3 construct: expressed in transfected cells; host or cells: HEK293
# T3 sequence (P23385 19-1199 A59H/G266H): as the sequence (P23385 19-1199 E60H/N264H) above, with A41H, H42E, H246N, G248H counted along it
# mGlu1 P58H/N264H mutant = biological target: T4, mGlu1 P58H/N264H mutant (Rattus norvegicus, UniProt P23385, N264H/P58H); assay: Fura-2 Ca2+ imaging in HEK293 cells expressing mGlu1 P58H/N264H; assay type: cell-based
# T4 construct: expressed in transfected cells; host or cells: HEK293
# T4 sequence (P23385 19-1199 P58H/N264H): as the sequence (P23385 19-1199 E60H/N264H) above, with P40H, H42E counted along it
# mGlu1 A59H/A265H mutant = biological target: T5, mGlu1 A59H/A265H mutant (Rattus norvegicus, UniProt P23385, A265H/A59H); assay: Fura-2 Ca2+ imaging in HEK293 cells expressing mGlu1 A59H/A265H; assay type: cell-based; settings: single-cell values
# T5 construct: expressed in transfected cells; host or cells: HEK293
# T5 sequence (P23385 19-1199 A59H/A265H): as the sequence (P23385 19-1199 E60H/N264H) above, with A41H, H42E, H246N, A247H counted along it
# [2] = tested on: mGlu1 construct not given; assay: Fura-2 Ca2+ imaging in HEK293 cells, source data Suppl Fig1, left group (c0-c8); construct not given; assay type: cell-based, rat; settings: single-cell values, cells #15-#20; left group of third block
# Text: (§1) Supplement 41467_2022_30828_MOESM6_ESM.zip/Ojima et al_source data_Suppl Fig.xlsx, sheet "Suppl Fig1" | column: Glu; NiCl2; CuCl2; ZnCl2; CdCl2; Na2PdCl2; Pd(bpy)
# mGlu1(N264H) mutant = biological target: T6, mGlu1(N264H) mutant (Rattus norvegicus, UniProt P23385, N264H); assay: Fura-2 Ca2+ imaging in HEK293 cells expressing mGlu1(N264H); assay type: cell-based
# T6 construct: expressed in transfected cells; host or cells: HEK293
# T6 sequence (P23385 19-1199 N264H): as the sequence (P23385 19-1199 E60H/N264H) above, with H42E counted along it
# [3] = tested on: mGlu1 construct not given; assay: Fura-2 Ca2+ imaging in HEK293 cells, source data Suppl Fig1, middle group (c9-c17); construct not given; assay type: cell-based, rat; settings: single-cell values, cells #15-#20; middle group of third block
# Text: as §1
# [4] = tested on: HEK293 cells, vector control; assay: Fura-2 Ca2+ imaging in HEK293 cells transfected with control vector (Vec); assay type: cell-based; settings: single-cell values #1-#20
# [5] = tested on: mGlu1 construct not given; assay: Fura-2 Ca2+ imaging in HEK293 cells, source data Suppl Fig1, right group (c18-c26); construct not given; assay type: cell-based, rat; settings: single-cell values, cells #15-#20; right group of third block
# Text: as §1
# PC12 cells [6] = assay: NGF-induced neurite outgrowth in differentiated PC12 cells; assay type: cell-based; design: neurite outgrowth, individual values #1-#20 (Fig.4b): unit not given here; settings: for neurite outgrowth, individual values #1-#20 (Fig.4b): differentiated PC12 cells
# Description: After incubation for 3 days, PC12 cells bearing neurites were randomly selected, and the length of the longest neurite in each cell was measured using ImageJ package Fiji.
# [7] = HEK293 cells, Fura-2, read-out: EC50, Ca2+ response (Δratio)
smiles,measurement,setting,value
"O=[N+]([O-])[O-].O=[N+]([O-])[O-].[Pd+2].c1ccc(-c2ccccn2)nc1 [Pd(bpy), Pd(bpy)(NO3)2]","cell proliferation, Ave (Fig.4c)",PC12 cells [1]; Pd complex 30 µM,0.7826
same,"cell proliferation, Ave (Fig.4c)",PC12 cells [1]; Pd complex 100 µM,0.07957
same,"Ca2+ response of individual cells (source data Suppl Fig1), E60H/N264H",mGlu1 E60H/N264H mutant,-0.015 and 0.1464 and 0.05592 and 0.009469 and 0.1218 and 0.005362 and 1.129 and 0.9384 and 0.8641 and 0.6693 and 0.02784 and 0.0255 and 0.002069 and -0.0022 and -0.0079 and 0.08848 and 0.002385 and -0.01194 and -0.01146 and 0.1752
same,"Ca2+ response of individual cells (source data Suppl Fig1), WT",WT mGlu1,-0.002508 and 0.03248 and -0.005946 and 0.001185 and -0.01881 and -0.01405 and 0.05177 and 0.006038 and 0.01295 and 0.02212 and 0.002477 and -0.0007231 and 0.1314 and 0.1045 and 0.02565 and -0.005715 and 0.004592 and -0.01058 and -0.003931 and 0.0524
same,"Ca2+ response of individual cells (source data Suppl Fig1), A59H/G266H",mGlu1 A59H/G266H mutant,0.2879 and 0.01529 and 0.1021 and -0.0047 and 0.3807 and 0.03304 and 0.0004923 and 0.02376 and -0.0301 and -0.02225 and 0.0004846 and -0.005677 and 0.7275 and 0.6736
same,EC50,mGlu1 P58H/N264H mutant; [7],1.2 µM
same,"Ca2+ response of individual cells (source data Suppl Fig1), P58H/N264H","mGlu1 P58H/N264H mutant; single-cell values #1-#20, P58H/N264H",1.407 and 1.235 and 0.2781 and 0.4382 and 0.4216 and 0.8249 and 0.694 and 0.5635 and 0.8179 and 0.3484 and 1.211 and 0.7928 and 0.02745 and 0.7691 and 1.112 and 0.5883 and 0.4797 and 0.3836 and 0.0272 and 0.6649
same,"Ca2+ response of individual cells (source data Suppl Fig1), A59H/A265H",mGlu1 A59H/A265H mutant,-0.002885 and -0.009254 and 0.08719 and 0.008869 and -0.009738 and 0.003808 and 0.004285 and 0.02012 and -0.02372 and -0.01536 and -0.009285 and -0.02246 and 0.01085 and 0.1127
same,"Ca2+ response of individual cells (source data, sheet Suppl Fig1)",[2],0.505 and 0.8787 and 1.066 and 0.2405 and 0.9566 and 0.7627
same,Positive allosteric effect: dose-dependency of glutamate-induced responses,mGlu1(N264H) mutant; 3 µM Pd(bpy) in the presence of 10 µM LY367385,unaffected
same,Time to basal level after wash-out by culture medium,"mGlu1(N264H) mutant; 10 µM agonist, n = 15",49.0 ± 6.4 s
same,EC50,mGlu1(N264H) mutant; [7],1.6 µM
same,Pd(bpy) off,mGlu1(N264H) mutant; ave of 15 cells,49 s
same,Pd(bpy) on,mGlu1(N264H) mutant; ave of 15 cells,58 s
same,Effect on 100 μM glutamate-induced response,"mGlu1(N264H) mutant; in the presence of LY367385, P = 0.3803",not enhanced
same,"Ca2+ response to Pd complex, individual cells #1-#20 (Fig.4e)",mGlu1(N264H) mutant; single-cell values,0.1987 and 0.007031 and 0.6462 and 0.6597 and 0.6897 and 0.134 and 0.5276 and 0.6019 and 0.1524 and 0.7025 and 0.5861 and 1.131 and 0.7531 and 0.5352 and 0.5053 and 0.4553 and 0.9996 and 0.7233 and 0.7477 and 0.221
same,"Ca2+ response of individual cells (source data, sheet Suppl Fig1)",[3],0.04373 and -0.04935 and -0.001077 and -0.04196 and -0.007292 and 0.01256
same,"Ca2+ response of individual cells (source data Suppl Fig1), Vec",[4],-0.004731 and 0.3238 and -0.02602 and 0.02754 and -0.0031 and 0.006285 and -0.02257 and 0.004254 and 0.003354 and -0.004338 and -0.001023 and 0.0058 and -0.01141 and 0.05108 and 0.0005846 and 0.297 and 0.004723 and 0.01628 and 0.03037
same,"Ca2+ response of individual cells (source data, sheet Suppl Fig1)",[5],0.001923 and 0.0116 and 0.02873 and 0.01569 and 0.04602 and 0.003608
same,Neurite outgrowth,"PC12 cells [6]; 100 μM, 3 days, NGF-differentiated",not affected
same,"neurite outgrowth, individual values #1-#20 (Fig.4b)",PC12 cells [6]; [Pd(bpy)] 1 µM,135.681 and 134.669 and 132.267 and 127.77 and 127.752 and 123.426 and 118.782 and 113.497 and 109.51 and 107.296 and 102.296 and 95.2965 and 92.9706 and 197.35 and 182.054 and 180.267 and 162.995 and 150.48 and 140.539 and 136.598
same,"neurite outgrowth, individual values #1-#20 (Fig.4b)",PC12 cells [6]; [Pd(bpy)] 3 µM,125.971 and 116.953 and 113.154 and 109.598 and 107.841 and 88.6396 and 86.7696 and 85.5685 and 80.0833 and 79.598 and 79.4975 and 76.3259 and 73.1127 and 263.255 and 244.078 and 176.493 and 155.64 and 151.309 and 138.368 and 127.894
same,"neurite outgrowth, individual values #1-#20 (Fig.4b)",PC12 cells [6]; [Pd(bpy)] 10 µM,140.024 and 139.953 and 126.728 and 122.326 and 118.61 and 116.811 and 111.912 and 108.941 and 106.468 and 103.983 and 102.368 and 92.3553 and 91.5269 and 184.551 and 173.426 and 168.711 and 166.853 and 164.196 and 142.426 and 140.681
same,"neurite outgrowth, individual values #1-#20 (Fig.4b)",PC12 cells [6]; [Pd(bpy)] 30 µM,110.627 and 105.752 and 95.8406 and 93.1838 and 90.6274 and 88.9706 and 84.7696 and 80.5685 and 78.2548 and 76.598 and 71.4264 and 67.1127 and 62.669 and 292.527 and 200.326 and 143.51 and 135.196 and 131.456 and 117.853 and 113.811
same,"neurite outgrowth, individual values #1-#20 (Fig.4b)",PC12 cells [6]; [Pd(bpy)] 100 µM,136.698 and 130.77 and 122.681 and 121.338 and 121.125 and 116.924 and 109.267 and 109.255 and 105.042 and 102.225 and 101.456 and 94.5391 and 93.196 and 186.64 and 184.25 and 163.439 and 159.066 and 147.882 and 142.225 and 138.024
